Assay results from the OligoGym collection.
Values joined by “and” are separate entries in the source; they are usually repeats but may differ in a detail not shown here. Equal values may be shown once. After the bases stand the sugars from the 5' end (letter, count) and the backbone: PS all phosphorothioate, else s phosphorothioate and o phosphodiester by linkage. Methylation of C is not given here. k = constrained ethyl (cEt); d = 2'-deoxy (DNA)

Target: MALAT1
Settings: ASO, A431, 0.005 µM

Sequence	target mRNA inhibition
CAATAGTACTATAGCA (sugars k3 d10 k3, PS)	7%
CAATATTTGCCCCTCC (sugars k3 d10 k3, PS)	30%
CAATGCATTCTAATAG (sugars k3 d10 k3, PS)	18%
CAATGGACATCTCTTC (sugars k3 d10 k3, PS)	49%
CAATTACCTAAACCCA (sugars k3 d10 k3, PS)	20%
CACAAATACGACTGCT (sugars k3 d10 k3, PS)	24%
CACAAGGCAAATCGCC (sugars k3 d10 k3, PS)	20%
CACAATTCTTAATCAG (sugars k3 d10 k3, PS)	41%
CACAGCGGTACACTCC (sugars k3 d10 k3, PS)	40%
CACCAAATCGCACTGG (sugars k3 d10 k3, PS)	-7%
CACCGCTTGAGATTTG (sugars k3 d10 k3, PS)	47% and 30% and 26%
CACGCCAACACAGTTT (sugars k3 d10 k3, PS)	36%
CACGGAAATTTTTCTA (sugars k3 d10 k3, PS)	8%
CACTACTCCAAGCATT (sugars k3 d10 k3, PS)	23%
CACTCATATGCAATTC (sugars k3 d10 k3, PS)	37%
CACTCTAAGATTGTAA (sugars k3 d10 k3, PS)	33%
CACTGGATAAGTATTA (sugars k3 d10 k3, PS)	40%
CACTGTCAATTTATAG (sugars k3 d10 k3, PS)	19%
CACTTGCCAGTTTAAT (sugars k3 d10 k3, PS)	29%
CAGAAGTCTCGGGCTG (sugars k3 d10 k3, PS)	19%
CAGACAAGATTCATGA (sugars k3 d10 k3, PS)	19%
CAGACCAACCCCCAGT (sugars k3 d10 k3, PS)	-7%
CAGACCTTCTGAACCG (sugars k3 d10 k3, PS)	10%

Sequence	target mRNA inhibition
CAGCGGGATCAGAACA (sugars k3 d10 k3, PS)	23%
CAGCTAAGATAGCAGC (sugars k3 d10 k3, PS)	8%
CAGCTTCAATCACAAA (sugars k3 d10 k3, PS)	33%
CAGCTTCCGCTAAGAT (sugars k3 d10 k3, PS)	-11%
CAGGAACAAGTCCTAC (sugars k3 d10 k3, PS)	19%
CAGGCAAATTAATGGC (sugars k3 d10 k3, PS)	23%
CAGTAGGTATAGTTTA (sugars k3 d10 k3, PS)	-17%
CAGTCCTTTACAGAAG (sugars k3 d10 k3, PS)	12%
CAGTCTACAAGTTACA (sugars k3 d10 k3, PS)	27%
CAGTGCTATTTTATCC (sugars k3 d10 k3, PS)	78% and 70%
CAGTTATATTAGGTTC (sugars k3 d10 k3, PS)	8%
CAGTTCAATACTTTCC (sugars k3 d10 k3, PS)	45%
CAGTTGCCGCCAGCCC (sugars k3 d10 k3, PS)	-3%
CATAAACAATGCACTA (sugars k3 d10 k3, PS)	14%
CATCAAACACTGGTTC (sugars k3 d10 k3, PS)	14%
CATCAAGGCACTGATC (sugars k3 d10 k3, PS)	13%
CATCACCAAATTGCAC (sugars k3 d10 k3, PS)	28%
CATGACCCTACTGAAG (sugars k3 d10 k3, PS)	2%
CATGCAATACTGCAGA (sugars k3 d10 k3, PS)	15%
CATGCCAGTTACTCCA (sugars k3 d10 k3, PS)	33%
CATTACCCCAACTAAA (sugars k3 d10 k3, PS)	15%
CCAAAAGCTCTATACT (sugars k3 d10 k3, PS)	12%
CCAAATCGCACTGGCT (sugars k3 d10 k3, PS)	16%

Sequence	target mRNA inhibition
CCAAATTAATGCACTG (sugars k3 d10 k3, PS)	13%
CCAACCCCCAGTTCAA (sugars k3 d10 k3, PS)	24%
CCAACTAAGCGAATGG (sugars k3 d10 k3, PS)	18%
CCAACTGCTTGCAGTC (sugars k3 d10 k3, PS)	25%
CCAAGAACTAGCACCT (sugars k3 d10 k3, PS)	-22%
CCAAGCACTCATATGC (sugars k3 d10 k3, PS)	12%
CCAAGCCAAGCCGCCT (sugars k3 d10 k3, PS)	5%
CCAATACTTGTCTTAG (sugars k3 d10 k3, PS)	64% and 52%
CCACAACAATTTAGAG (sugars k3 d10 k3, PS)	-27%
CCACAAGGATCCAAGC (sugars k3 d10 k3, PS)	-20%
CCACGGCCCGCACGGA (sugars k3 d10 k3, PS)	6%
CCACTTGCCAGTTTAA (sugars k3 d10 k3, PS)	29%
CCAGTCTACAAGTTAC (sugars k3 d10 k3, PS)	50% and 56%
CCAGTTCAATACTTTC (sugars k3 d10 k3, PS)	13%
CCATAACTGATCTGAC (sugars k3 d10 k3, PS)	13%
CCATAATTGTAGTTAA (sugars k3 d10 k3, PS)	7%
CCCAAAAGCTCTATAC (sugars k3 d10 k3, PS)	6%
CCCAACACTGAACTAC (sugars k3 d10 k3, PS)	19%
CCCAACCGTAACAGGC (sugars k3 d10 k3, PS)	22%
CCCACAAACTTGCCAT (sugars k3 d10 k3, PS)	1%
CCCACAAGGATCCAAG (sugars k3 d10 k3, PS)	9%
CCCACCCAGCATTACA (sugars k3 d10 k3, PS)	18%
CCCAGCATTACAGTTC (sugars k3 d10 k3, PS)	10%

Sequence	target mRNA inhibition
CCCAGTTCAATACTTT (sugars k3 d10 k3, PS)	25%
CCCCCCCGCCTCAGTT (sugars k3 d10 k3, PS)	15%
CCCCGCCTCAGTTACA (sugars k3 d10 k3, PS)	35%
CCCTTCCCTATATAAG (sugars k3 d10 k3, PS)	5%
CCGAAGACACAGAGAC (sugars k3 d10 k3, PS)	2%
CCGCACGGAAATTTTT (sugars k3 d10 k3, PS)	15%
CCGCCTTTGTGAGGGA (sugars k3 d10 k3, PS)	14%
CCGTCATGTTTTAGAA (sugars k3 d10 k3, PS)	58% and 61%
CCGTTACGAAAGTCCT (sugars k3 d10 k3, PS)	67% and 56%
CCTACCACTCCCAATT (sugars k3 d10 k3, PS)	21%
CCTACCACTCTAAGAT (sugars k3 d10 k3, PS)	27%
CCTAGCTTCATCAAAC (sugars k3 d10 k3, PS)	-2%
CCTATAAGGACAGCTA (sugars k3 d10 k3, PS)	15%
CCTCAATGCCTACCGC (sugars k3 d10 k3, PS)	17%
CCTCACAAAACCCCCG (sugars k3 d10 k3, PS)	-13%
CCTCAGTACGAAACTC (sugars k3 d10 k3, PS)	16%
CCTCATGCTACTCTTC (sugars k3 d10 k3, PS)	54%
CCTGAAATCCCCTAGG (sugars k3 d10 k3, PS)	-4%
CCTGAAGACAGATTAG (sugars k3 d10 k3, PS)	24%
CCTGCCTTAAAGTTAC (sugars k3 d10 k3, PS)	20%
CCTGGTTAGGTATGAG (sugars k3 d10 k3, PS)	19%
CCTTCCGCCGCCTTTG (sugars k3 d10 k3, PS)	21%
CCTTCTGAACCGGAGC (sugars k3 d10 k3, PS)	-4%

Sequence	target mRNA inhibition
CGAAACTCCCCCATTA (sugars k3 d10 k3, PS)	15%
CGAATTCAGGGTGAGG (sugars k3 d10 k3, PS)	68% and 87%
CGACCTCACGGATTTT (sugars k3 d10 k3, PS)	16%
CGACTTGCTCCCAAGA (sugars k3 d10 k3, PS)	22%
CGATTATGGATCATGC (sugars k3 d10 k3, PS)	44% and 57%
CGCAACTGAGCCCCAG (sugars k3 d10 k3, PS)	18%
CGCCTCTTAAAGCACT (sugars k3 d10 k3, PS)	-12%
CGCCTTCCCGTACTTC (sugars k3 d10 k3, PS)	57%
CGCCTTTGTGAGGGAG (sugars k3 d10 k3, PS)	-3%
CGCTCAAATCCTGATC (sugars k3 d10 k3, PS)	23%
CGCTGCGCTTAAGAGG (sugars k3 d10 k3, PS)	10%
CGCTTAAGAGGGCAGG (sugars k3 d10 k3, PS)	12%
CGCTTGAGATTTGGGC (sugars k3 d10 k3, PS)	33%
CGGAGAACAACTCGCA (sugars k3 d10 k3, PS)	-4%
CGGGCTGCAGGCTGCG (sugars k3 d10 k3, PS)	14%
CGGTACACTCCTTCTC (sugars k3 d10 k3, PS)	40%
CGGTTGAGAAGTGGCA (sugars k3 d10 k3, PS)	-11%
CGTAAACACCCTCATC (sugars k3 d10 k3, PS)	32%
CGTGTTGTTTTCTCAG (sugars k3 d10 k3, PS)	23%
CGTTTTTCAGCTTCCA (sugars k3 d10 k3, PS)	7%
CTAACAGCACATCATG (sugars k3 d10 k3, PS)	32%
CTAACATGCAATACTG (sugars k3 d10 k3, PS)	1%
